# Columns and labels:
# [1] = target: NAMPT (human, recombinant, C-terminally His-tagged) (Homo sapiens, UniProt P43490); experiment: Time-Resolved Fluorescence Resonance Energy Transfer (TR-FRET) Binding Assay of NAMPT; conditions: without substrates; 6.8 nM NAMPT, 200 nM probe, 3 hours equilibration
# Outline: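 Read-out is the time-resolved FRET ratio Em520/Em495 (excitation 337 nm) between a terbium anti-His antibody (1 nM) on the enzyme and an Oregon Green 488-labelled nicotinamide-competitive inhibitor probe (200 nM). Enzyme was 6.8 nM, DMSO 2%, pH 7.5 HEPES buffer; 3 h room-temperature equilibration preceded reading.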
# NAMPT = NAMPT (Homo sapiens, UniProt P43490); experiment: TR-FRET Binding Assay of NAMPT with PRPP; conditions: with 200 μM PRPP and 2.5 mM ATP; 2 nM NAMPT, 2 nM probe, 16 hours equilibration
# Outline: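 NAMPT 2 nM + probe 2 nM + Tb-anti-His Ab 1 nM; PRPP 200 μM, ATP 2.5 mM, DMSO 2%; 16 h equilibration before TR-FRET read.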
# PC3 cells = experiment: NAMPT Cell Proliferation Assay; type: cell-based; conditions: Homo sapiens, PC-3, 120 h, 5 days incubation, cell viability by Cell Titer Glo
# Outline: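 PC3 cells were plated at 500 cells/well in RPMI with 10% heat-inactivated FBS, left to attach overnight, then given compounds in 10-fold dilutions from 10 μM to 1×10^−5 μM. After 5 days at 37° C and 5% CO2, viability was read by luminescence and IC50s came from sigmoidal fits of percent inhibition.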
# Chain of NAMPT (P43490 whole entry): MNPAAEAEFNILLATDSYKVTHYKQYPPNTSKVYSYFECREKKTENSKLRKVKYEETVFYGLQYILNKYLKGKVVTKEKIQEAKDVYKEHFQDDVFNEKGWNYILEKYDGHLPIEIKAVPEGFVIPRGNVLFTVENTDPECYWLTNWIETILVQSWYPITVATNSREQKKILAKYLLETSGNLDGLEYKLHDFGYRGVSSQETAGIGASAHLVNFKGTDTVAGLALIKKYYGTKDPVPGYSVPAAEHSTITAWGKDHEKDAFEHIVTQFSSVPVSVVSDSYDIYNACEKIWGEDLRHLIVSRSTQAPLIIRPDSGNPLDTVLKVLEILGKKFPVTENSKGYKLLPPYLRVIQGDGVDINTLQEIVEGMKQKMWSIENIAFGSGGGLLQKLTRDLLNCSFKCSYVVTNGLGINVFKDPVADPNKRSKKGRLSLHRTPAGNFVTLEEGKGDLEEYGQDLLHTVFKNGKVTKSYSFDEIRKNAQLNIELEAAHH
# Chain of NAMPT (human, recombinant, C-terminally His-tagged) (P43490 whole entry): as above
Compound,IC50 [1] [nM],IC50 (NAMPT) [nM],IC50 (PC3 cells) [nM]
"O=C(NCc1ccn2ccnc2c1)c1ccc(C2CCN(C(=O)Cc3ccccc3)C2)cc1 (stereo not drawn) [Example 731, N-(imidazo[1,2-a]pyridin-7-ylmethyl)-4-[1-(phenylacetyl)pyrrolidin-3-yl]benzamide]",223,0.391,50
"CC(C)(C(=O)N1CCC(c2ccc(C(=O)NCc3ccn4ccnc4c3)cc2)C1)c1ccccc1 (stereo not drawn) [Example 732, N-(imidazo[1,2-a]pyridin-7-ylmethyl)-4-[1-(2-methyl-2-phenylpropanoyl)pyrrolidin-3-yl]benzamide]",21.3,0.471,5.9
"O=C(NCc1ccn2ccnc2c1)c1ccc(C2CCN(C(=O)C(F)(F)c3ccccc3)C2)cc1 (stereo not drawn) [Example 733, 4-{1-[difluoro(phenyl)acetyl]pyrrolidin-3-yl}-N-(imidazo[1,2-a]pyridin-7-ylmethyl)benzamide]",119,0.712,20.2
"CC1(Cn2cc(-c3ccc(C(=O)NCc4ccn5ccnc5c4)o3)cn2)CCOCC1 [Example 734, N-(imidazo[1,2-a]pyridin-7-ylmethyl)-5-{1-[(4-methyltetrahydro-2H-pyran-4-yl)methyl]-1H-pyrazol-4-yl}furan-2-carboxamide]",14.2,0.605,0.553
"O=C(NCc1ccn2ccnc2c1)c1ccc(C2CCN(C(=O)c3ccccc3F)CC2)o1 [Example 735, 5-[1-(2-fluorobenzoyl)piperidin-4-yl]-N-(imidazo[1,2-a]pyridin-7-ylmethyl)furan-2-carboxamide]",646,0.864,688
"CC(C)C(=O)N1CCC(c2ccc(C(=O)NCc3ccn4ccnc4c3)o2)CC1 [Example 736, N-(imidazo[1,2-a]pyridin-7-ylmethyl)-5-[1-(2-methylpropanoyl)piperidin-4-yl]furan-2-carboxamide]",3090,0.73,8360
"N#Cc1ccccc1C(=O)N1CCC(c2ccc(C(=O)NCc3ccn4ccnc4c3)cc2)CC1 [Example 737, 4-[1-(2-cyanobenzoyl)piperidin-4-yl]-N-(imidazo[1,2-a]pyridin-7-ylmethyl)benzamide]",70.4,0.612,4.05
"O=C(NCc1ccn2ccnc2c1)c1ccc(-c2cnn(CC(F)(F)F)c2)o1 [Example 738, N-(imidazo[1,2-a]pyridin-7-ylmethyl)-5-[1-(2,2,2-trifluoroethyl)-1H-pyrazol-4-yl]furan-2-carboxamide]",364,0.705,85.9
"O=C(Cc1ccn2ccnc2c1)Nc1ccc(NC(=O)CC2CCCC2)cc1 [Example 739, 2-cyclopentyl-N-{4-[(imidazo[1,2-a]pyridin-7-ylacetyl)amino]phenyl}acetamide]",37.7,0.672,67.6
"CC(C)Cn1cc(-c2ccc(C(=O)NCc3ccn4ccnc4c3)o2)cn1 [Example 740, N-(imidazo[1,2-a]pyridin-7-ylmethyl)-5-[1-(2-methylpropyl)-1H-pyrazol-4-yl]furan-2-carboxamide]",70.1,0.403,8.13
"O=C(NCc1ccn2ccnc2c1)c1ccc(-c2cnn(Cc3ccccc3)c2)o1 [Example 741, 5-(1-benzyl-1H-pyrazol-4-yl)-N-(imidazo[1,2-a]pyridin-7-ylmethyl)furan-2-carboxamide]",68,0.647,74.9

# The next lines start with the values.
IC50 [1] [nM],IC50 (NAMPT) [nM],IC50 (PC3 cells) [nM],Compound
241,0.526,10.5,"O=C(NCc1ccn2ccnc2c1)c1ccc(-c2cnn(C[C@@H]3CCCO3)c2)o1 [Example 742, N-(imidazo[1,2-a]pyridin-7-ylmethyl)-5-{1-[(2S)-tetrahydrofuran-2-ylmethyl]-1H-pyrazol-4-yl}furan-2-carboxamide]"
63.3,0.691,6.81,"O=C(NCc1ccn2ccnc2c1)c1ccc(-c2cnn(C[C@H]3CCCO3)c2)o1 [Example 743, N-(imidazo[1,2-a]pyridin-7-ylmethyl)-5-{1-[(2R)-tetrahydrofuran-2-ylmethyl]-1H-pyrazol-4-yl}furan-2-carboxamide]"
1080,0.806,505,"CC(C)C(=O)N1CC=C(c2ccc(C(=O)NCc3ccn4ccnc4c3)o2)CC1 [Example 744, N-(imidazo[1,2-a]pyridin-7-ylmethyl)-5-[1-(2-methylpropanoyl)-1,2,3,6-tetrahydropyridin-4-yl]furan-2-carboxamide]"
994,0.783,632,"CC(C)CC(=O)N1CC=C(c2ccc(C(=O)NCc3ccn4ccnc4c3)o2)CC1 [Example 745, N-(imidazo[1,2-a]pyridin-7-ylmethyl)-5-[1-(3-methylbutanoyl)-1,2,3,6-tetrahydropyridin-4-yl]furan-2-carboxamide]"
795,0.839,116,"O=C(NCc1ccn2ccnc2c1)c1ccc(C2=CCN(C(=O)c3ccccc3)CC2)o1 [Example 746, 5-(1-benzoyl-1,2,3,6-tetrahydropyridin-4-yl)-N-(imidazo[1,2-a]pyridin-7-ylmethyl)furan-2-carboxamide]"
435,1.75,942,"CC(C)Cc1ccc(-c2ccc(C(=O)NCc3ccn4ccnc4c3)o2)cc1 [Example 747, N-(imidazo[1,2-a]pyridin-7-ylmethyl)-5-[4-(2-methylpropyl)phenyl]furan-2-carboxamide]"
558,0.648,50.7,"CC[C@H](C)C(=O)N1CC=C(c2ccc(C(=O)NCc3ccn4ccnc4c3)o2)CC1 [Example 748, N-(imidazo[1,2-a]pyridin-7-ylmethyl)-5-{1-[(2S)-2-methylbutanoyl]-1,2,3,6-tetrahydropyridin-4-yl}furan-2-carboxamide]"
392,0.79,77,"CC(C)(C)CC(=O)N1CC=C(c2ccc(C(=O)NCc3ccn4ccnc4c3)o2)CC1 [Example 749, 5-[1-(3,3-dimethylbutanoyl)-1,2,3,6-tetrahydropyridin-4-yl]-N-(imidazo[1,2-a]pyridin-7-ylmethyl)furan-2-carboxamide]"
1530,1.54,794,"O=C(NCc1ccn2ccnc2c1)c1ccc(C2=CCN(C(=O)CC3CC3)CC2)o1 [Example 750, 5-[1-(cyclopropylacetyl)-1,2,3,6-tetrahydropyridin-4-yl]-N-(imidazo[1,2-a]pyridin-7-ylmethyl)furan-2-carboxamide]"
1240,1,755,"CC(C)CS(=O)(=O)N1CCC(c2ncc(C(=O)NCc3ccn4ccnc4c3)s2)C1 (stereo not drawn) [Example 751, N-(imidazo[1,2-a]pyridin-7-ylmethyl)-2-{1-[(2-methylpropyl)sulfonyl]pyrrolidin-3-yl}-1,3-thiazole-5-carboxamide]"
5190,0.77,6660,"O=C(NCc1ccn2ccnc2c1)c1cnc(C2CCN(S(=O)(=O)c3ccccc3)C2)s1 (stereo not drawn) [Example 752, N-(imidazo[1,2-a]pyridin-7-ylmethyl)-2-[1-(phenylsulfonyl)pyrrolidin-3-yl]-1,3-thiazole-5-carboxamide]"
403,0.783,74.6,"CC(C)CS(=O)(=O)N1CC=C(c2ccc(C(=O)NCc3ccn4ccnc4c3)o2)CC1 [Example 753, N-(imidazo[1,2-a]pyridin-7-ylmethyl)-5-{1-[(2-methylpropyl)sulfonyl]-1,2,3,6-tetrahydropyridin-4-yl}furan-2-carboxamide]"
4.92,0.51,1.25,"CC(C)Cn1cc(-c2ccc(C(=O)NCc3cn4ccnc4cn3)s2)cn1 [Example 754, N-(imidazo[1,2-a]pyrazin-6-ylmethyl)-5-[1-(2-methylpropyl)-1H-pyrazol-4-yl]thiophene-2-carboxamide]"
13,0.57,2.49,"CC1(Cn2cc(-c3ccc(C(=O)NCc4ccn5ccnc5c4)s3)cn2)CCN(C(=O)OC(C)(C)C)CC1 [Example 755, tert-butyl 4-[(4-{5-[(imidazo[1,2-a]pyridin-7-ylmethyl)carbamoyl]thiophen-2-yl]-1H-pyrazol-1-yl)methyl}-4-methylpiperidine-1-carboxylate]"
123,0.609,18.9,"O=C(NCc1ccn2ccnc2c1)c1ccc(C2CCN(C(=O)CC3CC3)C2)s1 (stereo not drawn) [Example 756, 5-[1-(cyclopropylacetyl)pyrrolidin-3-yl]-N-(imidazo[1,2-a]pyridin-7-ylmethyl)thiophene-2-carboxamide]"
15.6,0.705,0.435,"O=C(NCc1ccn2ccnc2c1)c1ccc(C2CCN(C(=O)c3ccccc3Cl)C2)s1 (stereo not drawn) [Example 757, 5-[1-(2-chlorobenzoyl)pyrrolidin-3-yl]-N-(imidazo[1,2-a]pyridin-7-ylmethyl)thiophene-2-carboxamide]"
132,0.61,23.2,"O=C(NCc1ccn2ccnc2c1)c1ccc(C2CCN(C(=O)Cc3ccc(F)cc3)C2)s1 (stereo not drawn) [Example 758, 5-{1-[(4-fluorophenyl)acetyl]pyrrolidin-3-yl}-N-(imidazo[1,2-a]pyridin-7-ylmethyl)thiophene-2-carboxamide]"

# From patent publication US9187472B2 (AbbVie Inc., priority 2012, dated 2015)
